The values below come from patent US4076814A, “Preventive and curative compositions against mycoplasmosis” (Sankyo Company Limited, priority 1975, dated 1978).

What all share (format): cell-based
For one test, the system named is Mycoplasma pulmonis. Briefly: Antimicrobial test, conventional agar plate dilution method, Mycoplasma pulmonis. Conditions: for MIC: Mycoplasma, read-out: Minimum Inhibitory Concentration, Mycoplasma pulmonis. The text has this: (§1) ANTIMICROBIAL TEST AGAINST THREE STRAINS OF MYCOPLASMA
(§2) The test was effected by a conventional agar plate dilution method using the indicated strains of mycoplasma. The dithiocarbamic acid derivatives as shown below with Compound Nos. were employed in the test.

The next test concerns Mycoplasma hyorhinis. The test can be described thus: Antimicrobial test, conventional agar plate dilution method, Mycoplasma hyorhinis. Particulars: for MIC: Mycoplasma, read-out: Minimum Inhibitory Concentration, Mycoplasma hyorhinis.
Source text: as §1, §2

A further test relates to Mycoplasma gallisepticum. Briefly: Antimicrobial test, conventional agar plate dilution method, Mycoplasma gallisepticum. Conditions: for MIC: Mycoplasmoides gallisepticum, read-out: Minimum Inhibitory Concentration, Mycoplasma gallisepticum.
Source text: as §1, §2

SMILES strings stand for the structures. Converted amounts (≈) assume the structure as drawn. Structures can show the parent of a compound that is named as a salt.

For `CN(C)C(=S)SCc1cc(CSC(=S)N(C)C)c(O)c(C(C)(C)C)c1` [compound 251, 2-Hydroxy-5-dimethylthiocarbamoylthiomethyl-3-t-butylbenzyl dimethyldithiocarbamate], the results for the MIC with Mycoplasma pulmonis, with Mycoplasma hyorhinis and with Mycoplasma gallisepticum were 0.1 µg/mL (≈ 0.24 µM), 0.2 µg/mL (≈ 0.48 µM) and 0.2 µg/mL (≈ 0.48 µM), respectively.

Turning to `CN(C)C(=S)SCc1oc(CO)cc(=O)c1O` [compound 254, 5-Hydroxy-2-hydroxymethyl-4-oxo-4H-pyran-6-ylmethyl dimethyldithiocarbamate], the MIC with Mycoplasma pulmonis, with Mycoplasma hyorhinis and in the test with Mycoplasma gallisepticum was 0.39 µg/mL (≈ 1.42 µM) throughout.

Consider `CCN(CC)C(=S)SCc1oc(CO)cc(=O)c1O` [compound 255, 5-Hydroxy-2-hydroxymethyl-4-oxo-4H-pyran-6-ylmethyl diethyldithiocarbamate], for which the MIC in the test on Mycoplasma pulmonis turned out to be 0.1 µg/mL (≈ 0.33 µM); in the test with Mycoplasma hyorhinis, 0.05 µg/mL (≈ 0.165 µM); in the test with Mycoplasma gallisepticum, 0.05 µg/mL (≈ 0.165 µM).

Turning to `O=c1cc(CO)oc(CSC(=S)N2CCCC2)c1O` [compound 258, 5-Hydroxy-2-hydroxymethyl-4-oxo-4H-pyran-6-ylmethyl-1-pyrrolidinecarbodithioate], the MIC in the test on Mycoplasma pulmonis is 0.78 µg/mL (≈ 2.59 µM); with Mycoplasma hyorhinis, 0.39 µg/mL (≈ 1.29 µM); in the test with Mycoplasma gallisepticum it was 0.78 µg/mL (≈ 2.59 µM).

With `O=c1cc(CO)oc(CSC(=S)N2CCCCC2)c1O` [compound 261, 5-Hydroxy-2-hydroxymethyl-4-oxo-4H-pyran-6-ylmethyl-1-piperidinecarbodithioate], the MIC with Mycoplasma pulmonis, in the test with Mycoplasma hyorhinis and in the test on Mycoplasma gallisepticum was 3.13 µg/mL (≈ 9.92 µM) each time.

For the compound `O=c1cc(CO)oc(CSC(=S)N2CCOCC2)c1O` [compound 262, 5-Hydroxy-2-hydroxymethyl-4-oxo-4H-pyran-6-ylmethyl-4-morpholinecarbodithioate], the MIC in the test on Mycoplasma pulmonis is 0.78 µg/mL (≈ 2.46 µM); in the test with Mycoplasma hyorhinis it was 0.78 µg/mL (≈ 2.46 µM); in the test on Mycoplasma gallisepticum, 0.2 µg/mL (≈ 0.63 µM).

Turning to `CN1CCN(C(=S)SCc2oc(CO)cc(=O)c2O)CC1` [compound 263, 5-Hydroxy-2-hydroxymethyl-4-oxo-4H-pyran-6-ylmethyl-4-methyl-1-piperazinecarbodithioate], the results for the MIC with Mycoplasma pulmonis, with Mycoplasma hyorhinis and in the test on Mycoplasma gallisepticum were 3.13 µg/mL (≈ 9.47 µM), 3.13 µg/mL (≈ 9.47 µM) and 1.56 µg/mL (≈ 4.72 µM), respectively.

`Cc1cc2c(c(O)c1CSC(=S)N(C)C)C1OCC34CCCC(C)(C)C3CCC(C)(O2)C14` (stereo not drawn) [compound 265, 16-Dimethylthiocarbamoylthiomethylsiccanin]: the MIC in the test on Mycoplasma pulmonis, in the test with Mycoplasma hyorhinis and in the test on Mycoplasma gallisepticum was 0.39 µg/mL (≈ 0.82 µM) in each case.

With `CCN(CC)C(=S)SCc1c(C)cc2c(c1O)C1OCC34CCCC(C)(C)C3CCC(C)(O2)C14` (stereo not drawn) [compound 266, 16-Diethylthiocarbamoylthiomethylsiccanin], the MIC in the test on Mycoplasma pulmonis, with Mycoplasma hyorhinis and in the test on Mycoplasma gallisepticum was 0.1 µg/mL (≈ 0.199 µM) throughout.

As to `Cc1cc2c(c(O)c1CSC(=S)N1CCOCC1)C1OCC34CCCC(C)(C)C3CCC(C)(O2)C14` (stereo not drawn) [compound 271, 16-(4-Morpholinethiocarbonylthiomethyl)siccanin], the MIC in the test on Mycoplasma pulmonis, in the test on Mycoplasma hyorhinis and in the test on Mycoplasma gallisepticum was 1.56 µg/mL (≈ 3.01 µM) each time.

In the case of `Cc1cc2c(c(O)c1CSC(=S)N1CCN(C)CC1)C1OCC34CCCC(C)(C)C3CCC(C)(O2)C14` (stereo not drawn) [compound 272, 16-(4-Methyl-1-piperazinethiocarbonylthiomethyl)-siccanin], the MIC in the test with Mycoplasma pulmonis, with Mycoplasma hyorhinis and in the test on Mycoplasma gallisepticum was 0.39 µg/mL (≈ 0.735 µM) throughout.

For `Cc1cc2c(c(O)c1CSC(=S)N1CCN(C)CC1)C1OCC34CCCC(C)(C)C3CCC(C)(O2)C14` (stereo not drawn) [compound 273, 16-(4-Methyl-1-piperazinethiocarbonylthiomethyl)siccanin hydrochloride], the “Minimum Inhibitory Concentration, Mycoplasma pulmonis” value in the test on Mycoplasma pulmonis (hydrochloride) is 0.78 µg/mL. Also, in the test on Mycoplasma hyorhinis (hydrochloride), the “Minimum Inhibitory Concentration, Mycoplasma hyorhinis” value worked out at 0.78 µg/mL. Further, the “Minimum Inhibitory Concentration, Mycoplasma gallisepticum” value with Mycoplasma gallisepticum (hydrochloride) came to 0.78 µg/mL.
